Experiment [1] relates to anti-TAG72 mAb CC49 modified with TCO-tags (CC49-TCO) in LS174T tumor xenografts.
Protocol: This assay employs anti-TAG72 mAb CC49 modified with TCO-tags (CC49-TCO) and [111In]In-DOTA-PEG11-BisPy-Tz (FIG. 1) with well-established performance in pretargeted imaging of TAG72 expressing LS174 tumor xenografts.
LS174T xenograft-bearing mice are injected with CC49-TCO. After allowing for accumulation for 72 h, the tetrazine to be evaluated is injected via the tail vein, followed by [111In]In-DOTA-PEG11-BisPy-Tz after 1 h. in vivo performance of the tetrazine to be evaluated can therefore be correlated to tumor uptake of [111In]In-DOTA-PEG11-BisPy-Tz after 22 h. Increased in vivo performance is reflected by lower tumor uptake (see FIG. 1).
Further, a negative control (−C) and a positive control (+C) are included.
Experiment [2] has as its system TCO-modified CC49 (CC49-TCO) targeting TAG-72 in human colorectal cancer LS174T xenograft tumors. Kind of experiment: Pretargeted fluorescence imaging, ex vivo fluorescence measurements of selected organs. The experiment is classed as in vivo, Balb/c nude mice. Particulars: TCO-modified CC49 vs non-modified CC49 (control); compound 8 i.v. 72 h after antibody, 86.5 μg, 116.7 nmol; 1 h post injection; 488 nm excitation, 525/20 emission. The method, then:
Pretargeted imaging of compound 8 of Example 1 was tested in vivo.
Pretargeted imaging of compound 8 of Example 1 was tested in vivo using the monoclonal antibody CC49 targeting TAG-72 in human colorectal cancer LS174T xenograft tumors. Tumors were established in 7-8 week old Balb/c nude mice and after 10 days, the animals were injected i.v. with either 50 μg (0.33 nmol) TCO-modified CC49 (CC49-TCO, ~3.5 TCO/mAb), or non-modified CC49 (control) (n=3 per group). After 72 hours, compound 8 (~100 equivalents per TCO, 86.5 μg, 116.7 nmol) in 100 μL of PBS (pH=7.4) was injected i.v.. One hour post injection, selected organs were harvested for ex vivo fluorescence measurements using a Amersham Typhoon 5 laser scanner platform (GE healthcare Europe) using a 488 nm excitation laser and 525/20 emission filter.

Regarding `CC1=CC(C)=[N+]2C1=C(c1ccnc(-c3nnc(-c4ccc(CN(CC(=O)O)CC(=O)O)cn4)nn3)c1)c1c(C)cc(C)n1[B-]2(F)F` [Compound 7, 2,2′-(((6-(6-(4-(5,5-difluoro-1,3,7,9-tetramethyl-5H-4λ4,5λ4-dipyrrolo[1,2-c:2′,1′-f][1,3,2]diazaborinin-10-yl)pyridin-2-yl)-1,2,4,5-tetrazin-3-yl)pyridin-3-yl)methyl)azanediyl)diacetic acid], in experiment [1], the blocking effect was 93%.

The compound `CC1=CC(C)=[N+]2C1=C(c1ccc(-c3nnc(-c4ccc(CN(CC(=O)O)CC(=O)O)cn4)nn3)nc1)c1c(C)cc(C)n1[B-]2(F)F` [Compound 8, 2,2′-(((6-(6-(5-(5,5-difluoro-1,3,7,9-tetramethyl-5H-4λ4,5λ4-dipyrrolo[1,2-c:2′,1′-f][1,3,2]diazaborinin-10-yl)pyridin-2-yl)-1,2,4,5-tetrazin-3-yl)pyridin-3-yl)methyl)azanediyl)diacetic acid] registered a blocking effect in experiment [1] of 98%. The “fluorescence in tumor (ex vivo)” value in experiment [2] is reported as “higher fluorescence in tumor”.
